Where two headings read alike, the source gives them in different places. Values belong to the molecule of their own block, whether it stands above or below them.
How the values were obtained:
[1] = rat
in vitro [2] = conditions: rat, microsomes
in vitro [3] = conditions: PAMPA, ADME P: PAMPA permeability (class)
recombinant human GALK1 = recombinant human GALK1 (Homo sapiens, UniProt P51570); test: hGALK1 biochemical activity assay (Kinase-Glo Plus, ATP depletion)
Summary of the method: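 Recombinant human or mouse GALK1 (5 nM, with 100 μM galactose, in the added enzyme solution) was run with ATP (35 μM in the substrate solution) in HEPES pH 8.0 buffer. Compounds were tested at 11 1/3-step concentrations from 57.4 μM to 0.97 nM. After 1 h at room temperature, remaining ATP was read by Kinase-Glo Plus luminescence.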

recombinant mouse GALK1 = recombinant mouse GALK1 (Mus musculus, UniProt Q9R0N0); test: mGALK1 biochemical activity assay (Kinase-Glo Plus, ATP depletion)
recombinant mouse GALK1, sequence (Q9R0N0 whole entry): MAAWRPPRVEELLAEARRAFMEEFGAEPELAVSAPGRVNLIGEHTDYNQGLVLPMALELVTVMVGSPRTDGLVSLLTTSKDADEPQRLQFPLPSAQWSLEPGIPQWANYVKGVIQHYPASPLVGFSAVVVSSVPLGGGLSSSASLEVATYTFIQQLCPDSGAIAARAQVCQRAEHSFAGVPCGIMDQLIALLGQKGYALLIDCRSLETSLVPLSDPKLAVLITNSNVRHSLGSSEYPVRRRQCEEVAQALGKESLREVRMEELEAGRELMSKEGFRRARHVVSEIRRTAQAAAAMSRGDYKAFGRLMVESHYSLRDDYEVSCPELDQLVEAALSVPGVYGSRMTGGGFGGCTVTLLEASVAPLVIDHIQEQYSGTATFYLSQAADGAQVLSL
Summary of the method: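 Recombinant GALK1 (5 nM) with 100 μM galactose; GALK1 turnover read as ATP depletion by Kinase-Glo Plus luminescence. Reaction ran 1 h at room temperature before detection reagent was added.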

[4] = PAMPA
hGALK1m = target: T1, hGALK1m (Homo sapiens, UniProt P51570, E253A/K252A); test: in vitro hGALK1 activity assay of the structure-based optimisation (Example 12, Tables 17-20); format: biochemical
T1 construct: made in house; host or cells: E. coli HMS174
T1 sequence (P51570 whole entry K252A/E253A): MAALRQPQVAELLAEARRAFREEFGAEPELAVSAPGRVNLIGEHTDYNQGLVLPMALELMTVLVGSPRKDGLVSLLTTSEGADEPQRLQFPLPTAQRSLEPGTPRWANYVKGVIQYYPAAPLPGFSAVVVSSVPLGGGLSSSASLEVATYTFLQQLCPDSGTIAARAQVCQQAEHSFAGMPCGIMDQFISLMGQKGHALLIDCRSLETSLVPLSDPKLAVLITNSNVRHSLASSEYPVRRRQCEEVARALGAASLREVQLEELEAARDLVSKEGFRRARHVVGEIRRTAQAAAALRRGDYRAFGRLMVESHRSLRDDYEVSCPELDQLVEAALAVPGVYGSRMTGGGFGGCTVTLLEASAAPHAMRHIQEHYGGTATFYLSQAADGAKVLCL

[5] = aqueous kinetic solubility; conditions: aqueous kinetic solubility
[6] = rat microsomal stability (RLM)
[7] = system: skin fibroblasts derived from GALT-deficient patients; test: Gal-1-p accumulation assay in patient fibroblasts; format: cell-based, human
Method: Skin fibroblasts derived from GALT-deficient patients were maintained in galactose-free culture medium supplemented with 10% hexose-free fetal bovine serum (FBS). Before galactose challenge, inhibitors were added to the medium at designated concentrations and incubated at 37° C. for 4 hr. Then, galactose was added to reach 0.05% in the medium. After 4 hr of challenge, cells were collected and washed twice with PBS. Then, the cells were disrupted in 300 μL of ice-cold hypotonic buffer containing 25 mM Tris-HCl (pH 7.4), 25 mM NaCl, 0.5 mM EDTA, and protease inhibitor cocktail (Roche). The lysates were passed five times through a 30-gauge needle and centrifuged for 20 min at 16,000×g and 4° C. A small portion of supernatant was saved for protein concentration measurement. Gal-1-p level was measured using the alkaline phosphatase coupled method previously described. The gal-1-p concentration was normalized to protein concentration. The assay was analyzed using the paired t-test to determine the statistical difference between the compound treated cells and corresponding DMSO control. The two-sided p value less than 0.05 was considered statistically significant.
For measurement of cellular Gal-1P reduction, compounds at different concentrations were added to cultured patient fibroblast at 80% confluency. After incubating the compounds for 16 hours, 10 mM galactose was added to the culture. After another 4-hours, cells were washed with cold PBS buffer 3× and harvested for gal-1P measurement, according to previously published method. Liu et al., Bioorg. Med. Chem. Lett. 25(3): 721-727 (2015).
The in vitro hGALK1 activity assay was performed as previously described. Liu et al., Bioorg. Med. Chem. Lett. 25(3): 721-727 (2015). For the measurement of cellular Gal-1P reduction, compounds at different concentrations were added to cultured patient fibroblast at 80% confluency. After incubating the compounds for 16 hours, 10 mM galactose was added to the culture. […]

[8] = human liver microsome stability (HLM); format: in vitro ADME; conditions: GALK lead profile
[9] = mouse liver microsome stability (MLM); format: in vitro ADME; conditions: GALK lead profile
[10] = recombinant human GALK1, Kinase-Glo Plus ATP depletion, read-out: hGALK
[11] = recombinant mouse GALK1, Kinase-Glo Plus ATP depletion, read-out: mGALK

recombinant human GALK1, sequence (P51570 whole entry): as the sequence (P51570 whole entry K252A/E253A) above, with A252K, A253E counted along it

SMILES: CC1=C(C(=O)Nc2cc(C(=O)O)ccn2)C(c2ccccc2Cl)N=C(Nc2nc3cc(Cl)ccc3o2)N1 (stereo not drawn) [Compound 9, 2-(2-((5-chlorobenzo[d]oxazol-2-yl)amino)-4-(2-chlorophenyl)-6-methyl-1,4-dihydropyrimidine-5-carboxamido)isonicotinic acid]
Metab. Stabil. (m) [1]: >30 m | half-life (in vitro [2]): < 10 min | Papp (in vitro [3]): < 10 ×10⁻⁶ cm/s | IC50 (recombinant human GALK1; [10]): 2430 nM | IC50 (recombinant mouse GALK1; Tables 2-15, 35 μM ATP, 100 μM galactose, 1 h, bracketed figure after some values is undefined and not reported, read-out: mGALK IC50): 6110 nM | IC50 (recombinant mouse GALK1; [11]): 6110 nM | Perm. (1 × 10^−6 cm/sec) [4]: <1 1 × 10^−6 cm/sec | Emax (hGALK1m; Tables 18-19, read-out: Max Response (%)): 100% | IC50 (hGALK1m; Tables 18-19 and text of Example 12): 1700 nM

Sol. [5]: 1.27 µg/mL | RLM t ([6]; GALK lead profile): 16 min | Metab. Stabil. (m) ([6]; microsomal stability half-life): 17.1 m | PAMPA (PAMPA permeability; GALK lead profile, two values given): 485 10^−6 cm/s | Perm. (1 × 10^−6 cm/sec) (PAMPA permeability; PAMPA): 459.1 1 × 10^−6 cm/sec | Papp (PAMPA permeability; PAMPA, GALK lead profile, two values given): 390 ×10⁻⁶ cm/s | HLM t [8]: 47 min | IC50 (recombinant human GALK1; Tables 2-15, 35 μM ATP, 100 μM galactose, 1 h, bracketed figure after some values (e.g. −1.2) is undefined and not reported, read-out: hGALK IC50): 50 nM | IC50 (recombinant human GALK1; [10]): 50 nM | MLM t [9]: 13 min | IC50 (recombinant mouse GALK1; [11]): 690 nM | IC50 (hGALK1m; Tables 18-20 and text of Example 12): 14 nM
SMILES: CC1=C(C(=O)NCc2cnn(C)c2)C(c2ccc(C)cc2Cl)N=C(Nc2nc3ccc(F)c(N)c3o2)N1 (stereo not drawn) [Compound 126, 2-((7-amino-6-fluorobenzo[d]oxazol-2-yl)amino)-4-(2-chloro-4-methylphenyl)-6-methyl-N-((1-methyl-1H-pyrazol-4-yl)methyl)-1,4-dihydropyrimidine-5-carboxamide]
effect on Gal-1P accumulation (FIG. 5A) ([7]; CG patient fibroblasts): inhibited Gal-1P accumulation | change of Gal-1P inhibition with concentration (FIG. 5B) ([7]; concentration increased from 0.5 μM to 1 μM): significantly greater inhibition of Gal-1P accumulation | change of Gal-1P inhibition with concentration (FIG. 5B) ([7]; concentration increased from 1 μM to 3 μM): did not increase significantly

— patent US20230158025A1 (UNIVERSITY OF UTAH RESEARCH FOUNDATION, priority 2020, published 2023)
